Laboratory results taken from ChEMBL document CHEMBL1154583, “Cytotoxic lavandulyl flavanones from Sophora flavescens” (J Nat Prod, 2000).
Activity calls are given as the source filed them. The calls are words filed in the database; no cut-off is given here.

System: HL-60
Test: Cytotoxicity against human HL60 cells after 96 hrs by MTT assay
Type: functional, cell-based
Conditions: for IC50: HL-60, 96 h

Molecule C=C(C)[C@H](CC=C(C)C)Cc1c(O)cc(O)c2c1O[C@H](c1ccc(O)cc1O)CC2=O [SOPHORAFLAVANONE G] has an IC50 of 12.5 µM.
In the case of COc1ccc(-c2coc3cc(O)ccc3c2=O)cc1, the Activity is reported as “inactive”.
In the case of C=C(C)C(CC=C(C)C)Cc1c(O)cc(OC)c2c1O[C@H](c1ccc(O)cc1O)CC2=O (stereo not given in full) [KURARINONE], the IC50 is reported as 18.5 µM.
With Oc1ccc2c(c1)OC[C@H]1c3cc4c(cc3O[C@@H]21)OCO4 the Activity was “inactive”.
C=C(C)[C@H](CC=C(C)C)Cc1c(O)cc(OC)c2c1O[C@H](c1ccc(O)cc1OC)CC2=O showed an IC50 of 13.7 µM.
